Measured values: ChEMBL document CHEMBL1138611, “Oxadiazolylindazole sodium channel modulators are neuroprotective toward hippocampal neurones” (J Med Chem, 2009)

Experiments:
[1] = Inhibition of voltage-gated sodium channel in Wistar rat forebrain synaptosomes assessed as inhibition of [14C]guanidium ion flux; type: subcellular, Brain
Hippocampus = test: Neuroprotective activity in Wistar rat hippocampal slices assessed as ATP concentration at 50 uM relative to tetrodotoxin; type: functional
Cytochrome P450 1A2 = molecular target: T1, Cytochrome P450 1A2 (Homo sapiens, UniProt P05177); test: Inhibition of human recombinant CYP1A2; type: ADME
T1 sequence (P05177 whole entry): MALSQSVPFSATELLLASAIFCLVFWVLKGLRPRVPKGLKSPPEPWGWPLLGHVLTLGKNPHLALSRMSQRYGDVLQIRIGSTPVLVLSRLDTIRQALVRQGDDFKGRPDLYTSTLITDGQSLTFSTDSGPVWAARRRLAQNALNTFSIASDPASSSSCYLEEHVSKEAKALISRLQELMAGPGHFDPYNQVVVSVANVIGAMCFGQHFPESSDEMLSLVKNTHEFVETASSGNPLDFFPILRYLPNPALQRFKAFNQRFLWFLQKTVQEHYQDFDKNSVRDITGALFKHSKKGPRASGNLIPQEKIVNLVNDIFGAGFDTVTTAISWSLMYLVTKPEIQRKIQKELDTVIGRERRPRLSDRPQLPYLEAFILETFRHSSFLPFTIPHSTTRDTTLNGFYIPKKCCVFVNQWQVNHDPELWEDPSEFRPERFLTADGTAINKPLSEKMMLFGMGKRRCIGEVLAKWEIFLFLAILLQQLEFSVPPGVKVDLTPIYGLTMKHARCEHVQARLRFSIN

Cytochrome P450 2D6 = Cytochrome P450 2D6 (Homo sapiens, UniProt P10635); test: Inhibition of human recombinant CYP2D6; type: ADME
Sequence of Cytochrome P450 2D6 (P10635 whole entry): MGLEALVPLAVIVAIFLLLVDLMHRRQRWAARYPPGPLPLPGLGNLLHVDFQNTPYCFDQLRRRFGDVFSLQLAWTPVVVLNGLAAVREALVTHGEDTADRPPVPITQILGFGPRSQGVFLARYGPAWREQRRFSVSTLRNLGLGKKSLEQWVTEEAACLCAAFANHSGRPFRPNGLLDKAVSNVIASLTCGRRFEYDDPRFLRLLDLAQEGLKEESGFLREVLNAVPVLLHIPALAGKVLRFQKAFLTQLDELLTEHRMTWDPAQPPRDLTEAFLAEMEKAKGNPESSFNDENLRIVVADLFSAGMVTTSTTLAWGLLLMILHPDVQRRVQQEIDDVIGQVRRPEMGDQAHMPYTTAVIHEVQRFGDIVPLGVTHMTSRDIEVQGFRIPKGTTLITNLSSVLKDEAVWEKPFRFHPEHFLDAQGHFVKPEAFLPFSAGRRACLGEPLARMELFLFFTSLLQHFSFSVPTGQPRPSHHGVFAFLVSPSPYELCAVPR

Row | Structure (SMILES) | IC50 [1] [µM] | Activity (Hippocampus) [%] | IC50 (Cytochrome P450 1A2) [µM] | IC50 (Cytochrome P450 2D6) [µM]
1 | NCc1noc(-c2nn(Cc3cc(F)cc(F)c3F)c3ccccc23)n1 | 35 | 59 | – | –
2 | CC(C)(C)OC(=O)NCc1noc(-c2c3ccccc3nn2Cc2cccc(Cl)c2)n1 | 4 | 0 | – | –
3 | Cc1nc(-c2ccc(Cn3nc(-c4nc(CNC(=O)OC(C)(C)C)no4)c4ccccc43)cc2)no1 | 1 | – | – | –
4 | Cc1cc(C)cc(Cn2nc(-c3nc(CN)no3)c3ccccc32)c1 | 15 | 43 | 0.062 | 3.73
5 | Cc1ccccc1Cn1nc(-c2nc(CN)no2)c2ccccc21 | 26 | 46 | – | –
6 | CC(C)(C)OC(=O)NCc1noc(-c2nn(CCc3ccccc3)c3ccccc23)n1 | 5 | 0 | – | –
7 | COc1ccc(S(=O)(=O)n2nc(-c3nc(CN)no3)c3ccccc32)cc1OC | 102 | 2 | > 10 | 2.9
8 | O=C(NCc1noc(-c2nn(Cc3ccccc3)c3ccccc23)n1)OCc1ccccc1 | 5 | 12 | – | –
9 | Cc1cccc(Cn2nc(-c3nc(CN)no3)c3ccccc32)c1 | 28 | 45 | 0.084 | 3.96
10 | CC(C)(C)OC(=O)NCc1noc(-c2nn(Cc3cccc(C(F)(F)F)c3)c3ccccc23)n1 | 8 | 3 | – | –
11 | Cc1cccc(Cn2nc(-c3nc(CNC(=O)OC(C)(C)C)no3)c3ccccc32)c1 | 1 | 0 | – | 20
12 | COc1cc(Cn2nc(-c3nc(CN)no3)c3ccccc32)cc(OC)c1OC | 178 | 28 | – | –
13 | CC(C)(C)OC(=O)NCc1noc(-c2c3ccccc3nn2Cc2ccc3c(c2)OCO3)n1 | 3 | 0 | – | –
14 | CC(C)(C)OC(=O)NCc1noc(-c2nn(Cc3ccccc3Cl)c3ccccc23)n1 | > 300 | 9 | – | –
15 | COc1cc(Cn2nc(-c3nc(CNC(=O)OC(C)(C)C)no3)c3ccccc32)cc(OC)c1OC | 195 | 0 | – | –
16 | CC(C)(C)OC(=O)NCc1noc(-c2nn(Cc3ccc(-c4cn[nH]c4)cc3)c3ccccc23)n1 | 16 | 20 | – | > 10
17 | CC(C)(C)OC(=O)NCc1noc(-c2nn(Cc3ccc(C(N)=O)cc3)c3ccccc23)n1 | 24 | 29 | – | > 10
18 | CC(=O)Nc1ccc(Cn2nc(-c3nc(CNC(=O)OC(C)(C)C)no3)c3ccccc32)cc1 | 15 | 47 | 5.92 | 13
19 | NCc1noc(-c2nn(Cc3cccc(C(F)(F)F)c3)c3ccccc23)n1 | 26 | 58 | – | –
20 | NCc1noc(-c2nn(Cc3ccc4ccccc4c3)c3ccccc23)n1 | 20 | 11 | – | –
21 | COc1ccc(S(=O)(=O)n2nc(-c3nc(CNC(=O)OC(C)(C)C)no3)c3ccccc32)cc1OC | 2 | 10 | – | 20
22 | NCc1noc(-c2c3ccccc3nn2CCc2ccccc2)n1 | 19 | 54 | 0.36 | 4.27
23 | COc1ccc(Cn2nc(-c3nc(CNC(=O)OC(C)(C)C)no3)c3ccccc32)cc1 | 4 | 0 | – | –
24 | NCc1noc(-c2nn(Cc3cccc(OC(F)(F)F)c3)c3ccccc23)n1 | 26 | 33 | – | –
25 | CC(C)(C)OC(=O)NCc1noc(-c2n[nH]c3ccccc23)n1 | 96 | 0 | 0.79 | > 10
26 | Cc1cc(C)cc(Cn2nc3ccccc3c2-c2nc(CN)no2)c1 | 14 | 35 | – | –
27 | Cc1ccc(Cn2nc(-c3nc(CN)no3)c3ccccc32)cc1 | 17 | 34 | – | –
28 | CC(C)(C)OC(=O)NCc1noc(-c2nn(Cc3cc(F)cc(F)c3F)c3ccccc23)n1 | 1 | 0 | – | –

Row | Structure (SMILES) | IC50 [1] [µM] | Activity (Hippocampus) [%] | IC50 (Cytochrome P450 1A2) [µM] | IC50 (Cytochrome P450 2D6) [µM]
29 | Cc1cc(C)cc(Cn2nc(-c3nc(CNC(=O)OC(C)(C)C)no3)c3ccccc32)c1 | 4 | 0 | – | –
30 | Cc1cccc(Cn2nc3ccccc3c2-c2nc(CNC(=O)OC(C)(C)C)no2)c1 | 151 | 0 | – | –
31 | CC(=O)n1nc(-c2nc(CN)no2)c2ccccc21 | > 300 | 24 | – | > 10
32 | CC(C)(C)OC(=O)NCc1noc(-c2c3ccccc3nn2Cc2ccccc2)n1 | 174 | 25 | – | –
33 | CC(=O)n1nc(-c2nc(CNC(=O)OC(C)(C)C)no2)c2ccccc21 | 132 | 4 | – | > 10
34 | CC(C)(C)OC(=O)NCc1noc(-c2nn(CCOc3ccccc3)c3ccccc23)n1 | 6 | 8 | – | –
35 | CC(=O)Nc1ccc(Cn2nc(-c3nc(CN)no3)c3ccccc32)cc1 | 309 | 10 | – | –
36 | Cc1ccccc1Cn1nc(-c2nc(CNC(=O)OC(C)(C)C)no2)c2ccccc21 | 3 | 0 | – | –
37 | CC(C)(C)OC(=O)NCc1noc(-c2nn(Cc3ccc4ccccc4c3)c3ccccc23)n1 | 0.4 | 0 | – | –
38 | CC(C)(C)OC(=O)NCc1noc(-c2nn(Cc3cccc(Cl)c3)c3ccccc23)n1 | 4 | 12 | – | –
39 | CC(C)(C)OC(=O)NCc1noc(-c2c3ccccc3nn2CCc2ccccc2)n1 | 85 | 0 | – | –
40 | O=S(=O)(NCc1noc(-c2nn(Cc3ccccc3)c3ccccc23)n1)c1ccccc1 | 5 | 20 | – | –
41 | NCc1noc(-c2nn(Cc3ccccc3Cl)c3ccccc23)n1 | 20 | 43 | – | –
42 | NCc1noc(-c2nn(Cc3cccc(Cl)c3)c3ccccc23)n1 | 14 | 50 | – | –
43 | CC(C)(C)OC(=O)NCc1noc(-c2nn(Cc3ccccc3)c3ccccc23)n1 | 5 | 19 | – | –
44 | NCc1noc(-c2c3ccccc3nn2Cc2ccc3c(c2)OCO3)n1 | 34 | 55 | – | –
45 | O=C(NCc1noc(-c2nn(Cc3ccccc3)c3ccccc23)n1)c1ccccc1 | 18 | 23 | – | –
46 | Cc1nc(-c2ccc(Cn3nc(-c4nc(CN)no4)c4ccccc43)cc2)no1 | 58 | – | – | –
47 | NCc1noc(-c2nn(CCOc3ccccc3)c3ccccc23)n1 | 30 | 40 | – | –
48 | NCc1noc(-c2nn(Cc3ccc(C(N)=O)cc3)c3ccccc23)n1 | 195 | 8 | – | 1.3
49 | Cc1cccc(Cn2nc3ccccc3c2-c2nc(CN)no2)c1 | 26 | 37 | – | –
50 | NCc1noc(-c2nn(Cc3ccc4c(c3)OCO4)c3ccccc23)n1 | 30 | 44 | – | –
51 | NCc1noc(-c2nn(Cc3ccc(-c4cn[nH]c4)cc3)c3ccccc23)n1 | 63 | 26 | – | –
52 | Cc1ccc(Cn2nc(-c3nc(CNC(=O)OC(C)(C)C)no3)c3ccccc32)cc1 | 2 | 0 | – | –
53 | COc1ccc(Cn2nc(-c3nc(CN)no3)c3ccccc32)cc1 | 38 | 35 | – | –
54 | CC(C)(C)OC(=O)NCc1noc(-c2nn(Cc3cccc(OC(F)(F)F)c3)c3ccccc23)n1 | 0.9 | 0 | – | –
55 | Cc1cc(C)cc(Cn2nc3ccccc3c2-c2nc(CNC(=O)OC(C)(C)C)no2)c1 | 12 | 0 | – | –
